Assay results from US20150307841A1, “Composition for Promoting Differentiation and Proliferation of Neural Stem Cell and Neural Precursor Cell” (priority 2014, published 2015).

What was measured:
[1] = tested on: hippocampal neural precursor cells (NPCs); assay: Immunoblotting assay of VGluT1, ChAT, GAD65/67 in cultured hippocampal neural precursor cells; format: cell-based, rat
Source text: (§1) Pregnant Sprague-Dawley rats purchased from Orient Animal Breeding Center (a branch of Charles River Laboratories, Gyeonggi-do, Korea) were sacrificed by exposing to CO2 inhalation. Hippocampal neural precursor cells (NPCs) were isolated from the brain of the E16 rat embryo according to the method of Shin M H et al. (Exp Mol Med, 2002) with slight modifications.
(§2) Briefly, hippocampi were aseptically dissected from the embryonic forebrain, mechanically dissociated in Ca^2+/Mg^2+-free Hank's balanced salt solution (HBSS) and then plated at 7×10^5 cells/cm^2 on 60-mm dishes pre-coated with 15 μg/mL poly-L-ornithine and 1 μg/mL fibronectin. The neural precursor cells were cultured in serum-free N2 media supplemented with 10 ng/mL bFGF in 5% CO2 for 3 days and then detached using 0.05% trypsin-ethylenediaminetetraacetic acid (EDTA). The neural precursor cells were plated on 12-mm cover glasses (Bellco Co., Vineland, N.J., USA) and cultured one more day in N2 media supplemented with 10 ng/mL bFGF in 5% CO2 (primary culturing).
Following the primary culturing in (1), the cultured hippocampal neural precursor cells were lysed in 80 μL of a cold RIPA buffer containing a protease inhibitor cocktail for immunoblotting assay of VGluT1, ChAT and GAD65/67. After centrifugation for 10 minutes at 13,000×g, the supernatants were divided into Eppendorf tubes and stored at −80° C.
Protein quantification assay was performed using a Bradford protein assay kit (Bio-Rad, Hercules, Calif., USA). […]
The number of the VGluT1- and GAD-positive cells in the brain slice samples 1 week and 4 weeks after the administration of soyasaponin I was presented per microscopic field (×400-VGluT1, ×800-GAD67) and the number of the ChAT-positive cells was presented per each hippocampal region (10-12 confocal laser microscopic fields). […] Western blotted membranes were analyzed using the multi-gauge, bio-imaging program on LAS-4000 Mini (Fujifilm Life Science, Stamford, Conn., USA). […]

[2] = tested on: hippocampal neural precursor cells (NPCs); assay: Ki67 immunostaining of cultured embryonic neural precursor cells (proliferation); format: cell-based, rat
Source text: as §1, §2
Following the primary culturing in (1), immunohistochemical analysis was conducted using Ki67 antibodies in order to confirm the effect of soyasaponin I on proliferation of the embryonic neural precursor cells. […]

[3] = tested on: BrdU-positive neural precursor cells in the hippocampal region; assay: Immunohistochemical analysis of BrdU in hippocampus after soyasaponin I administration (Experimental Example 1); format: in vivo, rat
Method: After conducting the three behavioral tests, the rats were sacrificed for immunohistochemical analysis.
The brain slices of the test animals of the normal group (Sham), the IBO group and the Soya-I group were immunostained by the method of Heo H et al. (J Ethnopharmacol, 2009) with modifications. The rats were transcardially perfused with 4% PFA in PBS. Following fixation by immersing in 4% PFA in PBS for 3 hours, the brain tissues were cryoprotected in 30% sucrose in PBS, frozen with an optimal cutting temperature (OCT) compound and stored at −80° C.
The brain tissue blocks were cryosectioned through the coronal plane at a thickness of 35 μm. The brain tissue sections were stored at 4° C. in a storing solution (30% glycerol and 30% ethylene glycol in PBS). The stored brain slices were permeabilized in 0.5% Triton X-I00 for 20 minutes and incubated at 37° C. for 30 minutes in 2 N HCl. Then, they were blocked in 15% normal serum and 3% bovine serum albumin (BSA, bio-WORLD, Dublin, Ohio, USA) and 0.1% Triton X-100 for 2 hours under a free-floating condition.
The sections were incubated for 16 hours at 4° C. with primary antibodies against bromodeoxyuridine (BrdU) (Sigma). […]
In the immunohistochemical analysis, the number of the cells immnunostained against each antibody was counted from 5 or 6 hippocampal coronal sections. […]

## C[C@@H]1O[C@@H](O[C@H]2[C@H](O[C@H]3[C@H](O[C@H]4CC[C@@]5(C)[C@@H](CC[C@]6(C)[C@@H]5CC=C5[C@@H]7CC(C)(C)C[C@@H](O)[C@]7(C)CC[C@]56C)[C@@]4(C)CO)O[C@H](C(=O)O)[C@@H](O)[C@@H]3O)O[C@H](CO)[C@H](O)[C@@H]2O)[C@H](O)[C@H](O)[C@H]1O [soyasaponin I]
[1]; 0.5, 1, 2 μM test groups, normalized to β-actin and vehicle
  Expression level of ChAT protein compared to the normal group: 1.9 fold
[1]; treatment for 6 days
  Expression of GAD65/67 protein: increased relatively little
  Expression of VGluT1 protein: increased relatively little
[2]; 2 μM soyasaponin I
  Increase in the number of proliferating (Ki67) cells compared with the normal group (Vehicle): 2.5 fold
[2]; 0.5, 1, 2 μM
  Proliferation of the neural precursor cells (Ki67), concentration dependence: increased rapidly
[3]; 10 mg/kg oral
  Dose with greatest rise in number of BrdU-positive cells: largest increase
[3]; all doses (5, 10, 20 mg/kg) oral
  Number of BrdU-positive cells in the dentate gyrus of the hippocampus versus IBO: increased significantly
